Several values for one entry are separate records, joined by “and”; a condition that tells them apart may be missing. Equal values may be shown once.
Legend:
[1] = system: sandwich-cultured human hepatocytes; test: Effect of ERAs on endogenous glycochenodeoxycholic acid (GCDCA) distribution in sandwich-cultured human hepatocytes; assay type: cell-based; details: 24 h, mean ± standard error, n=3 human livers
Method: Sandwich-cultured human hepatocytes were obtained from Celsis/IVT (Baltimore, MD) or Life Technologies (Durham, NC). […] Hepatic uptake, biliary excretion and in vitro biliary clearance (Clb) were determined using the B-CLEAR® hepatocyte sandwich culture model as described by Liu et al., 1999 [34]. In this system, hepatocytes form functional bile canalicular networks while maintaining the expression and function of key uptake and efflux transporters. The canalicular system of bile pockets remains separate from the cellular culture media due to tight junctions between cells. The integrity of these tight junctions is maintained in the presence of calcium (Plus (+) buffer) while in the absence of calcium (Minus (−) buffer), these tight junctions open and release the contents of the canalicular network into the media.
Incubation solutions containing ERA (1, 10 and 100 µM) were prepared in cell culture medium. On the sixth day of culturing of the sandwich-cultured hepatocytes, cell culture medium was removed from the wells and incubation solutions containing the test ERAs were added to the cells. The cells were incubated with ERA solution for 24 h at 37°C. After the exposure, the incubation solutions were removed and the cells were rinsed with Plus (+) or Minus (−) buffer. The buffer solutions were then removed and the cells were incubated with fresh Plus (+) or Minus (−) buffer for 5 min at 37°C. Following this 5 minute incubation, the buffer solutions were collected and any remaining buffers were removed. The cells were then washed three times with ice-cold Plus (+) buffer and the plates were frozen at −80°C until processed for bioanalysis.
Study samples were stored in their original 24-well plates at −80°C until prepared for analysis. A volume of 500 µL of cell lysis solution (70∶30 methanol:water) containing 25 nM internal standard was added to each well and mixed for 20 min of mixing. The volume in each well was then transferred to a 96-well filter plate stacked on a Greiner deep well collection plate. The filter plate/collection plate was then centrifuged at 2000 rcf for 5 min. The filtrate was then evaporated to dryness under nitrogen. Samples were reconstituted in 200 µL of sample diluent (60∶40 methanol:10 mM ammonium acetate, native pH), sealed, and placed on a plate shaker for 15 min. These samples were then transferred to a Whatman 96-well 0.45 µm PVDF filter plate stacked on a Costar 3956 plate (HPLC injection plate), centrifuged at 2000 rcf for 2–3 min, and sealed with a silicon cap mat prior to LC-MS/MS analysis. d8-TCA standard spiking solutions were prepared in 50∶50 methanol:water. For a given lysate standard or control, 10 µL was added to each well of a previously frozen analytical plate. Standards representing 0.5–100 pmoles/well and QC’s at the LLQ and ULQ were prepared. These lysate standards and controls were then further processed as described above for unknown study samples. Prepared samples were filtered and analyzed by LC-MS/MS using a Shimadzu binary HPLC system (Columbia, MD) and tandem mass spectrometry using Thermo Electron TSQ® Quantum Discovery MAX™ (Waltham, MA) with an Ion Max ESI source operating in negative ion electrospray ionization mode. Results for unknowns and QCs were calculated using a standard curve based on an internal standard processing method.
Statistical comparisons across ERA treatments were performed using analysis of variance (ANOVA) with Fisher’s PLSD post hoc analysis (Statview 5.0, SAS Institute, Cary NC); statistical significance was considered to be P<0.05. All mass values were normalized to mg protein by taking the average protein mass in the taurocholate plate determined using a BCA protein assay (Pierce Biotechnology, Rockford, IL). Cellular accumulation determined in Minus (−) buffer (Accumulation Minus (−) Buffer) represents the total mass of analyte inside the hepatocyte at the end of the incubation time period. […]

[2] = cited from earlier work
fresh human hepatocytes = test: Cellular uptake of bosentan and macitentan into fresh human hepatocytes with or without transport inhibitors; assay type: in vitro ADME; details: 300 nM
Method: The cellular uptake of bosentan and macitentan was determined in fresh human hepatocytes purchased from Celsis/IVT (Baltimore, MD) or Life Technologies (Foster City, CA). Cells were pre-incubated in Krebs-Henseleit Buffer containing 5% bovine serum albumin for 30 min at 37°C prior to assay. Cells were then co-incubated in the presence and absence of an inhibitor cocktail containing 40 µM rifampicin and 5 µM of cyclosporin A for 15 min. Test compounds bosentan and macitentan were diluted to 3 fold of final target concentration in the same assay buffer and equilibrated at 37°C for 30 min. The uptake assay was initiated by adding 50 µL of test compound solution to the 48-well plate containing 100 µL cell suspension, mixed and incubated at 37°C for 30, 60 and 90 sec. Final cell density was 2×10^6 cells/mL with a final test compound concentration of 300 nM. The reaction mixture was overlaid onto pre-prepared microcentrifuge tubes containing 100 µL of 2 N NaOH (bottom layer) and 100 µL of filtration oil (middle layer; 74.5∶25.5 silicon oil:mineral oil mix) followed by centrifugation at 13,000 g for 30 sec. The samples were allowed to sit at room temperature for 2 h and then frozen at −80°C. The microcentrifuge tubes were then cut and the bottom layer containing the cell lysate collected. HCl solution was added to neutralize the solution. Samples were extracted with organic solvents for analysis by liquid chromatography coupled to tandem mass spectrometry (LC/MS/MS).

[3] = design: method as in PMID 22189899; details: plasma pharmacokinetics in patients ref 36; cited from earlier work

reduction of cellular uptake in the presence of transport inhibitors (fresh human hepatocytes; 40 µM rifampicin plus 5 µM cyclosporin A, fresh human hepatocytes) [%] | cellular uptake relative to that of bosentan (fresh human hepatocytes; human) | Structure (SMILES) | GCDCA BEI (% Control) ([1]; 1 µM) | GCDCA Cellular Accumulation (% Control) ([1]; 1 µM) | GCDCA Medium Concentration (% Control) ([1]; 1 µM) | GCDCA Total Accumulation (% Control) ([1]; 1 µM) | GCDCA BEI (% Control) ([1]; 10 µM) | GCDCA Cellular Accumulation (% Control) ([1]; 10 µM) | GCDCA Medium Concentration (% Control) ([1]; 10 µM) | GCDCA Total Accumulation (% Control) ([1]; 10 µM) | GCDCA BEI (% Control) ([1]; 100 µM) | GCDCA Cellular Accumulation (% Control) ([1]; 100 µM) | GCDCA Medium Concentration (% Control) ([1]; 100 µM) | GCDCA Total Accumulation (% Control) ([1]; 100 µM) | patients with serum aminotransferase concentrations >3 times ULN ([2]; ARIES studies, n = 261 ref 11) | incidence of elevated aminotransferase >3 times ULN ([2]; ARIES-E long-term extension, mean follow-up of 1.4 years ref 12) [%] | cellular uptake in the absence of transport inhibitors (fresh human hepatocytes; fresh primary human hepatocytes, n = 4 donors) | increase in macitentan exposure on coadministration with cyclosporin A [3] [%] | increase in macitentan trough concentration on coadministration with cyclosporin A [3] [%]
– | – | COC(c1ccccc1)(c1ccccc1)[C@H](Oc1nc(C)cc(C)n1)C(=O)O [ambrisentan] | 95.1 ± 16.3 | 104.0 ± 3.0 | 110.0 ± 7.6 | 103.0 ± 8.1 | 81.3 ± 11.0 | 83.6 ± 11.6 | 109.0 ± 16.0 | 75.7 ± 8.0 | 76.0 ± 38.1 | 27.6 ± 3.4 | 103.0 ± 2.3 | 26.3 ± 5.7 | none | 1.8 | – | – | –
46 | – | COc1ccccc1Oc1c(NS(=O)(=O)c2ccc(C(C)(C)C)cc2)nc(-c2ncccn2)nc1OCCO [bosentan] | 94.5 ± 12.4 | 88.0 ± 5.9 | 114.0 ± 9.9 | 86.8 ± 3.5 | 65.7 ± 21.7 | 54.8 ± 4.4 | 109.0 ± 14.7 | 47.2 ± 2.3 | 56.8 ± 11.9 | 30.3 ± 6.7 | 126.0 ± 7.9 | 25.4 ± 6.0 | – | – | 4.6±0.7 pmol/million cells and 4.6 pmol/million cells | – | –
– | approximately 7 times | CCCNS(=O)(=O)Nc1ncnc(OCCOc2ncc(Br)cn2)c1-c1ccc(Br)cc1 [macitentan] | 98.7 ± 14.8 | 88.7 ± 0.8 | 111.0 ± 9.0 | 90.0 ± 4.0 | 89.4 ± 14.2 | 52.1 ± 2.6 | 98.7 ± 10.1 | 48.9 ± 0.9 | 37.5 ± 21.9 | 11.4 ± 3.2 | 51.8 ± 7.1 | 8.38 ± 1.4 | – | – | – | 10 | 38
– | – | Cc1cc2c(cc1CC(=O)c1sccc1S(=O)(=O)Nc1onc(C)c1Cl)OCO2 [sitaxsentan] | 112.0 ± 19.8 | 89.8 ± 10.8 | 110.0 ± 9.2 | 99.3 ± 11.0 | 85.7 ± 8.4 | 79.4 ± 12.4 | 105.0 ± 11.9 | 73.8 ± 10.5 | 55.5 ± 34.3 | 14.5 ± 2.7 | 76.5 ± 8.3 | 12.4 ± 3.0 | – | – | – | – | –

From publication PMC3907537, “Evaluation of the Endothelin Receptor Antagonists Ambrisentan, Bosentan, Macitentan, and Sitaxsentan as Hepatobiliary Transporter Inhibitors and Substrates in Sandwich-Cultured Human Hepatocytes” (PLoS ONE, 2014)
